From the NIST ThermoML archive (doi:10.1021/je060139a)

Assay: xn = mol fraction of the nth substance listed
Conditions: Wilhelmy plate method

CC(=O)OCc1ccccc1 [benzyl ethanoate] + CCO
surface tension liquid-gas [mN/m]
Conditions	288.15 K	298.18 K	308.15 K	318.15 K
x1 = 0.05	24	23.2	22.3	21.3
x1 = 0.1	24.8	23.9	23	22
x1 = 0.15	25.5	24.57	23.63	22.6
x1 = 0.2	26.1	25.18	24.23	23.2
x1 = 0.25	26.7	25.77	24.83	23.8
x1 = 0.3	27.3	26.36	25.43	24.4
x1 = 0.35	28	27.02	26.07	25.03
x1 = 0.4	28.7	27.69	26.72	25.66
x1 = 0.45	29.4	28.37	27.38	26.3
x1 = 0.5	30.1	29.02	28.03	26.93
x1 = 0.55	30.8	29.69	28.67	27.56
x1 = 0.6	31.5	30.36	29.3	28.17
x1 = 0.65	32.2	31.02	29.94	28.78
x1 = 0.7	32.9	31.68	30.58	29.41
x1 = 0.75	33.62	32.37	31.24	30.06
x1 = 0.8	34.4	33.08	31.93	30.75
x1 = 0.85	35.2	33.92	32.8	31.6
x1 = 0.9	36.1	34.8	33.7	32.45
x1 = 0.95	36.9	35.6	34.5	33.3
x1 = 1	37.7	36.4	35.3	34.1
